Measured values: patent US9388139B2, “Derivatives of celeboxib, use thereof and preparation thereof” (German University, priority 2011, dated 2016)

Legend:
PDE2A = PDE2A (Homo sapiens (Human), UniProt O00408); experiment: PDE isozyme selectivity, IMAP assay; type: biochemical
Method: (§1) PDE activity was measured using the IMAP fluorescence polarization assay (Molecular Devices) in which binding of hydrolyzed cyclic nucleotide substrate to immobilized metal coordination complexes increases fluorescence polarization (FP). Tetramethylrhodamine (TAMRA)-cGMP and fluorescein-cAMP were used as substrates, each at final concentration of 50 nmol/L. The PDE assay was done according to the manufacturer's specifications using either whole cell lysates or recombinant enzymes.

COX2 = COX2 (Ovis aries (Sheep), UniProt P79208); experiment: COX-2 activity, colorimetric assay; type: biochemical, ovine; conditions: screening dose 100 μM; read-out: IC50 μM against COX2
Method: (§2) Compounds according to the present disclosure were tested for their in vitro ability to inhibit recombinant human PDE5, COX1 and COX2 enzymes at screening doses of 50, 100 and 100 μM respectively.
COX-1 and COX-2 activities were measured using purified ovine COX-1 and COX-2 with colorimetric assay kits obtained from Cayman Chemical Co. (Ann Arbor, Mich.). The activities of COX-1 and COX-2 were measured after the addition of arachidonic acid and incubation at 25° C. for 5 min by absorbance at 590 nm as specified by the manufacturer.

[1] = tested on: human colorectal HT-29 tumor cell line; experiment: Tumor cell growth assay (Cell Titer Glo); type: cell-based; conditions: HT-29, 72 hours, read-out: IC50 μM against HT-29
[2] = tested on: human breast MDA-MB-231 tumor cell line; experiment: Tumor cell growth assay (Cell Titer Glo); type: cell-based; conditions: MDA-MB-231, 72 hours, read-out: IC50 μM against MDA-MB-231
recombinant human PDE5 = recombinant human PDE5 (Homo sapiens (Human), UniProt O76074); experiment: PDE5 inhibition, IMAP fluorescence polarization assay; type: biochemical; conditions: recombinant human PDE5; IC50 determined if inhibition >50% at 50 μM screening dose; read-out: IC50 μM against PDE5
Method: as §2, §1

PC-3 = experiment: Tumor cell growth inhibition panel; type: cell-based; conditions: Homo sapiens, Prostate
Method: (§3) Thus, compound 12 is able to show broad spectrum tumor cell growth inhibitory activity independent of cyclooxygenase inhibition, whereas PDE5 may be the major contributor to such activity.
(§4) The human tumor cell lines were purchased from the American Type Culture Collection (Mansassas, Va.) and maintained in RPMI-1640+2.0 g/L glucose pH 7.4+5% FBS+4 mM glutamine (complete growth medium), incubated at 37° C. in 5% CO2, and passaged at subconfluent density. The human fetal colon FHC cells were cultured in DMEM:F12 medium supplemented with 10% FBS, cholera toxin (10 ng/mL), 5 μg/ml transferrin, 5 μg/ml insulin, and 100 ng/ml hydrocortisone. The passage number was routinely limited to approximately 20 and morphology monitored with each passage, but no additional authentication of the cell lines was performed.
(§5) Cells were plated in 96-well microtiter plates at a density of 5,000 cells per well and allowed to adhere overnight prior to treatment. Cells were treated with a 2-log concentration range of either SS or SBA and incubated for an additional 72 hours. For siRNA assays, cells were transfected in OptiMEM media with 0.5% SureFECT transfection reagent and 200 nmol/L of either negative control or PDE5 siRNA and incubated at 37° C. for 24 h prior to treatment. At the end of the incubation period, relative cell viability was compared to vehicle controls using the Cell Titer Glo Assay (Promega, Madison Wis.), which measures viable cells based on ATP content, according to the manufacturer's specifications.

NCI-ADR/RES = experiment: Tumor cell growth inhibition panel; type: cell-based; conditions: Homo sapiens; Other, NCI-ADR/RES (adriamycin resistant)
Method: as §3, §4, §5

UO-31 = experiment: Tumor cell growth inhibition panel; type: cell-based; conditions: Homo sapiens, Renal
Method: as §3, §4, §5

UACC-62 = experiment: Tumor cell growth inhibition panel; type: cell-based; conditions: Homo sapiens, Melanoma
Method: as §3, §4, §5

CAKI-1 = experiment: Tumor cell growth inhibition panel; type: cell-based; conditions: Homo sapiens, Renal
Method: as §3, §4, §5

CCFR-CEM = experiment: Tumor cell growth inhibition panel; type: cell-based; conditions: Homo sapiens, Hematopoietic
Method: as §3, §4, §5

K562 = experiment: Tumor cell growth inhibition panel; type: cell-based; conditions: Homo sapiens, Hematopoietic
Method: as §3, §4, §5

OVCAR-3 = experiment: Tumor cell growth inhibition panel; type: cell-based; conditions: Homo sapiens, Ovarian
Method: as §3, §4, §5

ACHN = experiment: Tumor cell growth inhibition panel; type: cell-based; conditions: Homo sapiens, Renal
Method: as §3, §4, §5

HCT-15 = experiment: Tumor cell growth inhibition panel; type: cell-based; conditions: Homo sapiens, Colon
Method: as §3, §4, §5

[3] = tested on: human tumor cell lines of different origins; experiment: Tumor cell growth inhibition panel, overall; type: cell-based; conditions: in words; including the adriamycin resistant cell line ADR/NCl-RES
Method: as §3, §4
Cells were plated in 96-well microtiter plates at a density of 5,000 cells per well and allowed to adhere overnight prior to treatment. Cells were treated with a 2-log concentration range of either SS or SBA and incubated for an additional 72 hours. For siRNA assays, cells were transfected in OptiMEM media with 0.5% SureFECT transfection reagent and 200 nmol/L of either negative control or PDE5 siRNA and incubated at 37° C. for 24 h prior to treatment. […]

PDE10 = PDE10 (Homo sapiens (Human), UniProt Q9Y233); experiment: PDE isozyme selectivity, IMAP assay; type: biochemical
PDE10, sequence (Q9Y233 whole entry): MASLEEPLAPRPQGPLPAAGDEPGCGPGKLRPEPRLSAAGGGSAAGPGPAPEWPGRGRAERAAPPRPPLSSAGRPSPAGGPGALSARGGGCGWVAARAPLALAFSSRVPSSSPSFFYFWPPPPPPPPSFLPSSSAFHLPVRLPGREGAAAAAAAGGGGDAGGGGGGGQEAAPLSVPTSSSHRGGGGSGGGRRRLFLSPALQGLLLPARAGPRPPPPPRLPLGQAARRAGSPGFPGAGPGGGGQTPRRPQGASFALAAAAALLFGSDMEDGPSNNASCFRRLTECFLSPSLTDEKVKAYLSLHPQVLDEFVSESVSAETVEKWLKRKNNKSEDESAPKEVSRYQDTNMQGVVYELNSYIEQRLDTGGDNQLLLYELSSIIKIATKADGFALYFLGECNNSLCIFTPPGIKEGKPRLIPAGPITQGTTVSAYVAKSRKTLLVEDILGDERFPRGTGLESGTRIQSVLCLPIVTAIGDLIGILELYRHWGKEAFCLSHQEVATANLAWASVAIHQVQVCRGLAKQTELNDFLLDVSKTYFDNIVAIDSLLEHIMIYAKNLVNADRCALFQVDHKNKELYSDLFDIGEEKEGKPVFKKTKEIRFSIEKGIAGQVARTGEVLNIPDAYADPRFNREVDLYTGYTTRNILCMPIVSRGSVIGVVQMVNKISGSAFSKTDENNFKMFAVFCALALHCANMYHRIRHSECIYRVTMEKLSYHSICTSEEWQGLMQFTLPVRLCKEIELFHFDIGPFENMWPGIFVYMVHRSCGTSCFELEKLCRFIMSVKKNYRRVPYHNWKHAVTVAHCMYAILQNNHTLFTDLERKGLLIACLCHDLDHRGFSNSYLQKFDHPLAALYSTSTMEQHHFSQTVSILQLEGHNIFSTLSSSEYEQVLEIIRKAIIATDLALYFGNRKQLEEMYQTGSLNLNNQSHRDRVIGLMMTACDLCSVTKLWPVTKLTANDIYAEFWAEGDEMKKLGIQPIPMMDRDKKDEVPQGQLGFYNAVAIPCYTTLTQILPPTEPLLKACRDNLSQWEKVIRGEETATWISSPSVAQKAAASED
Method: as §1, with “enzymes. FP was measured at excitation, emission wavelengths of either 530,590 nm for TAMRA-cGMP or 485,530 nm for fluorescein-cAMP using a Synergy4 (Biotek) microplate reader.” for “enzymes.”

PDE3B = PDE3B (Homo sapiens (Human), UniProt Q13370); experiment: PDE isozyme selectivity, IMAP assay; type: biochemical
PDE3B, sequence (Q13370 whole entry, species assumed): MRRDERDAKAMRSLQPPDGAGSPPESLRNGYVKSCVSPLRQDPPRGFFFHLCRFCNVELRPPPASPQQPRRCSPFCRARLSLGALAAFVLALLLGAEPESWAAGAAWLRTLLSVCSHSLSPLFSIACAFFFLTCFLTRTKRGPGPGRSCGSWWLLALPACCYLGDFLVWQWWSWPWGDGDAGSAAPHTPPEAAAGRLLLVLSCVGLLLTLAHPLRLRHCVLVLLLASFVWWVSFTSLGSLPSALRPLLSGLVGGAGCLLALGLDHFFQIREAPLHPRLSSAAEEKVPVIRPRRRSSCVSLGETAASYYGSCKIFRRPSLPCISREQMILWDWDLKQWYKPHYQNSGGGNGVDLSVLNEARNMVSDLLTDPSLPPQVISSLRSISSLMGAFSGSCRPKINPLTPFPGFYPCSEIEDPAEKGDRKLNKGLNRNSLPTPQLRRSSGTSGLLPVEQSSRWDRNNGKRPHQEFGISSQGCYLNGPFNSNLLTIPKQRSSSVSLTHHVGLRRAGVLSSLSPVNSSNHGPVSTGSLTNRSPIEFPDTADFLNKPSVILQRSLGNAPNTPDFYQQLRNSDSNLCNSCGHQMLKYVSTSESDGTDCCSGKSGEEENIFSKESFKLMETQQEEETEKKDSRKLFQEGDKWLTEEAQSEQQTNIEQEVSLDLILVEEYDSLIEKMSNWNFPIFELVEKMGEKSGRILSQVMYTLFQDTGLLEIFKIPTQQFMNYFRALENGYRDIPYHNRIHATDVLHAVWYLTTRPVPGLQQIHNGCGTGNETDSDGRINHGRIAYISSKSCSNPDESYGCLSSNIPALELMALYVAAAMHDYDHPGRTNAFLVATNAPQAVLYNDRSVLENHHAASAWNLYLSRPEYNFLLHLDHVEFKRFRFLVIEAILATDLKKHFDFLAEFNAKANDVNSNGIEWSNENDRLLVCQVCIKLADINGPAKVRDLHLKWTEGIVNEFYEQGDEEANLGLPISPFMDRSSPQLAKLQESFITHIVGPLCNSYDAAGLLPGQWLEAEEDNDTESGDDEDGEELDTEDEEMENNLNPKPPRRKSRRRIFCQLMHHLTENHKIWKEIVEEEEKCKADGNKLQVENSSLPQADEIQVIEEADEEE
Method: as §1, with “enzymes. FP was measured at excitation, emission wavelengths of either 530,590 nm for TAMRA-cGMP or 485,530 nm for fluorescein-cAMP using a Synergy4 (Biotek) microplate reader.” for “enzymes.”

PDE1A = PDE1A (Homo sapiens (Human), UniProt P54750); experiment: PDE isozyme selectivity, IMAP assay; type: biochemical
PDE1A, sequence (P54750 whole entry, species assumed): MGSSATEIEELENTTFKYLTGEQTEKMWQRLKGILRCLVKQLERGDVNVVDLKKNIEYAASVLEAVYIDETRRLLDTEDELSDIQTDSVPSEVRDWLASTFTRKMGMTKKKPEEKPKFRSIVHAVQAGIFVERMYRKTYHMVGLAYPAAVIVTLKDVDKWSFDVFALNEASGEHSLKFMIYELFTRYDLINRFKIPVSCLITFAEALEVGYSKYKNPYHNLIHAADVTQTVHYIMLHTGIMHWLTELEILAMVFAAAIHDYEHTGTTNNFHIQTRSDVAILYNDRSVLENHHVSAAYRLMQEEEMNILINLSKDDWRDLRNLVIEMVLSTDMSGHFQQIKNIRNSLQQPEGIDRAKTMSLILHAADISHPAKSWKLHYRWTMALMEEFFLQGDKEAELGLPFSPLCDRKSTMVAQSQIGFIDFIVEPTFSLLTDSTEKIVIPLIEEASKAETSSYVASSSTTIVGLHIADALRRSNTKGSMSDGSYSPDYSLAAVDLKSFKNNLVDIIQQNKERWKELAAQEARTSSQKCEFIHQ
Method: as §1, with “enzymes. FP was measured at excitation, emission wavelengths of either 530,590 nm for TAMRA-cGMP or 485,530 nm for fluorescein-cAMP using a Synergy4 (Biotek) microplate reader.” for “enzymes.”

PDE5A = PDE5A (Homo sapiens (Human), UniProt O76074); experiment: PDE isozyme selectivity, IMAP assay; type: biochemical
Method: as §1, with “enzymes. FP was measured at excitation, emission wavelengths of either 530,590 nm for TAMRA-cGMP or 485,530 nm for fluorescein-cAMP using a Synergy4 (Biotek) microplate reader.” for “enzymes.”

PDE3A = PDE3A (Homo sapiens (Human), UniProt Q14432); experiment: PDE isozyme selectivity, IMAP assay; type: biochemical
PDE3A, sequence (Q14432 whole entry, species assumed): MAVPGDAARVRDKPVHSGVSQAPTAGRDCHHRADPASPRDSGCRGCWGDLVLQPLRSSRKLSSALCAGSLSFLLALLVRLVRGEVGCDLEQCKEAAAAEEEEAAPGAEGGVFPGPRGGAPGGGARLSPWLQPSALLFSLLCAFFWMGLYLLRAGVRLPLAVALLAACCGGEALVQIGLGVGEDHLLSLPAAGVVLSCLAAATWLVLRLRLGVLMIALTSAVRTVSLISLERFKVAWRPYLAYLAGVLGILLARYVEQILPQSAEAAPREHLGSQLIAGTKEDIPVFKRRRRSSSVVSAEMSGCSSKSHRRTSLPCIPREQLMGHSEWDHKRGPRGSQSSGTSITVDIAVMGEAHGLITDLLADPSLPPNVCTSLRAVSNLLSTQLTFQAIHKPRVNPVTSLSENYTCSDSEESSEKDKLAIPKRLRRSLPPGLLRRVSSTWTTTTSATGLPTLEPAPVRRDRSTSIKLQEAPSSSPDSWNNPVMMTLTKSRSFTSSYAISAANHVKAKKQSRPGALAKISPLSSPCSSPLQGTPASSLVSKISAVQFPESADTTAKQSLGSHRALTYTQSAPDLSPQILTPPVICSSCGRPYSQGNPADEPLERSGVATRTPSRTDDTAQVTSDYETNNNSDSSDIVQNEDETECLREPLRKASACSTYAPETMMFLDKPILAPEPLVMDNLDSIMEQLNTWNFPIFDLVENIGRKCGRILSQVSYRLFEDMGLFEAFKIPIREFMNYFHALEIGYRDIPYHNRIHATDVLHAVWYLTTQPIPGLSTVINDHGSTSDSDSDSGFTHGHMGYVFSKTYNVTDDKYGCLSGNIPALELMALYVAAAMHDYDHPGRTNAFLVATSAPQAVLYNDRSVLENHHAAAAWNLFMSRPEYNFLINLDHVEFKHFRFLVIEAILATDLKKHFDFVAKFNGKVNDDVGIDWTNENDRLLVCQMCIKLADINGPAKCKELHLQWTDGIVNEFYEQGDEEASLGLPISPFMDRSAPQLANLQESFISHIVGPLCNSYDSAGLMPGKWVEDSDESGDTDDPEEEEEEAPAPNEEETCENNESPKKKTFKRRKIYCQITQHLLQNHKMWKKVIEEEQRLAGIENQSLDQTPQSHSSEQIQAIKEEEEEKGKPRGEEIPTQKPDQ
Method: as §1, with “enzymes. FP was measured at excitation, emission wavelengths of either 530,590 nm for TAMRA-cGMP or 485,530 nm for fluorescein-cAMP using a Synergy4 (Biotek) microplate reader.” for “enzymes.”

PDE11 = PDE11 (Homo sapiens (Human), UniProt Q9HCR9); experiment: PDE isozyme selectivity, IMAP assay; type: biochemical
Method: as §1, with “enzymes. FP was measured at excitation, emission wavelengths of either 530,590 nm for TAMRA-cGMP or 485,530 nm for fluorescein-cAMP using a Synergy4 (Biotek) microplate reader.” for “enzymes.”

PDE9A = PDE9A (Homo sapiens (Human), UniProt O76083); experiment: PDE isozyme selectivity, IMAP assay; type: biochemical; conditions: substrate cGMP
Method: as §1, with “enzymes. FP was measured at excitation, emission wavelengths of either 530,590 nm for TAMRA-cGMP or 485,530 nm for fluorescein-cAMP using a Synergy4 (Biotek) microplate reader.” for “enzymes.”

PDE2A, sequence (O00408 whole entry, species assumed): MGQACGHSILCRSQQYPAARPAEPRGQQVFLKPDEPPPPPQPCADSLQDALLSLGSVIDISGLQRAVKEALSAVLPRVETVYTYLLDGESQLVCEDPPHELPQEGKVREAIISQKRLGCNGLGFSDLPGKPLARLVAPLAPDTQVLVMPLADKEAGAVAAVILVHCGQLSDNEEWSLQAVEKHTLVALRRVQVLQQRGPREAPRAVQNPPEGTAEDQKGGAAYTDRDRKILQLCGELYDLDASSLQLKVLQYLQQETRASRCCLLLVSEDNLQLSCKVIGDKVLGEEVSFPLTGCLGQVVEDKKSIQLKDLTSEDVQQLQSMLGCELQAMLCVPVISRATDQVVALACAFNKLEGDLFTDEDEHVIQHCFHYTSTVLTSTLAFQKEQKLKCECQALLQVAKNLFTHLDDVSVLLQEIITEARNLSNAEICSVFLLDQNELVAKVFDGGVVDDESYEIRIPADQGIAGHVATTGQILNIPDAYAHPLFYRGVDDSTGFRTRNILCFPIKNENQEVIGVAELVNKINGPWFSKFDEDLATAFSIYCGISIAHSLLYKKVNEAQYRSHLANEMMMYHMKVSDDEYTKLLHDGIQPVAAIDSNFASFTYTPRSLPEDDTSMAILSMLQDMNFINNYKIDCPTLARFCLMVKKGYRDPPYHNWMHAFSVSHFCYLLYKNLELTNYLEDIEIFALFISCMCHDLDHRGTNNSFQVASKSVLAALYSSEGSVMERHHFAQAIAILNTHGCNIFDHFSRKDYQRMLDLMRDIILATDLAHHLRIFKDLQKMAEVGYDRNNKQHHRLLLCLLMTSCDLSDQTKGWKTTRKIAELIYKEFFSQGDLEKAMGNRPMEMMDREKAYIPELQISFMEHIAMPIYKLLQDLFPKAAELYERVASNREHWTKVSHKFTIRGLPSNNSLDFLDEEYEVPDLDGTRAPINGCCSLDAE

**Q.** With `CC(C)(C)C1=NN(c2ccc(C(=O)O)cc2)C(c2ccc(Cl)cc2Cl)C1` (stereo not drawn) [Compound 12, 4-(3-(tert-Butyl)-5-(2,4-dichlorophenyl)-4,5-dihydro-1H-pyrazol-1-yl)benzoic acid] as the molecule, how does the IC50 (PDE2A; substrate cAMP) read?
**A.** Its IC50 is over 50 µM.

**Q.** What about the IC50 (PDE2A; substrate cGMP) of the same molecule?
**A.** The IC50 was over 50 µM.

**Q.** What about the IC50 (COX2) of the same molecule?
**A.** The IC50 was over 100 µM.

**Q.** What about the IC50 [1] of the same molecule?
**A.** Its IC50 is 29.8 µM.

**Q.** What about the IC50 [2] of the same molecule?
**A.** Its IC50 is over 50 µM.

**Q.** What about the IC50 (recombinant human PDE5) of the same molecule?
**A.** The IC50 was 3.7 µM.

**Q.** And the IC50 (PC-3)?
**A.** Its IC50 is 55.1 µM.

**Q.** What about the IC50 (NCI-ADR/RES) of the same molecule?
**A.** The IC50 was 57.2 µM.

**Q.** What about the IC50 (UO-31) of the same molecule?
**A.** Its IC50 is 55.7 µM.

**Q.** And the IC50 (UACC-62)?
**A.** The IC50 was 42.3 µM.

**Q.** And the IC50 (CAKI-1)?
**A.** The IC50 was 87 µM.

**Q.** And the IC50 (CCFR-CEM)?
**A.** Its IC50 is 33.1 µM.

**Q.** And the IC50 (K562)?
**A.** The IC50 was 33.2 µM.

**Q.** And the IC50 (OVCAR-3)?
**A.** Its IC50 is 37.8 µM.

**Q.** And the IC50 (ACHN)?
**A.** The IC50 was 55.3 µM.

**Q.** And the IC50 (HCT-15)?
**A.** Its IC50 is 40.3 µM.

**Q.** What about the “tumor cell growth inhibitory activity” value [3] of the same molecule?
**A.** The value was “broad spectrum growth inhibitory activity”.

**Q.** What about the IC50 (PDE10; PDE10, substrate cAMP) of the same molecule?
**A.** The IC50 was over 50 µM.

**Q.** What about the IC50 (PDE10; PDE10, substrate cGMP) of the same molecule?
**A.** The IC50 was over 50 µM.

**Q.** And the IC50 (PDE3B; substrate cAMP)?
**A.** The IC50 was over 50 µM.

**Q.** What about the IC50 (PDE3B; substrate cGMP) of the same molecule?
**A.** Its IC50 is over 50 µM.

**Q.** And the IC50 (PDE1A; substrate cAMP)?
**A.** The IC50 was over 50 µM.

**Q.** And the IC50 (PDE1A; substrate cGMP)?
**A.** Its IC50 is over 50 µM.

**Q.** What about the IC50 (PDE5A; PDE5A, substrate cGMP) of the same molecule?
**A.** The IC50 was 3.7 µM.

**Q.** What about the “selectivity for PDE5 relative to other cGMP degrading PDE isozymes” value (PDE5A; in words) of the same molecule?
**A.** Its value is “selective inhibitor for PDE5”.

**Q.** And the IC50 (PDE3A; substrate cAMP)?
**A.** The IC50 was over 50 µM.

**Q.** What about the IC50 (PDE3A; substrate cGMP) of the same molecule?
**A.** The IC50 was over 50 µM.

**Q.** What about the IC50 (PDE11; PDE11, substrate cAMP) of the same molecule?
**A.** Its IC50 is over 50 µM.

**Q.** What about the IC50 (PDE11; PDE11, substrate cGMP) of the same molecule?
**A.** The IC50 was over 50 µM.

**Q.** What about the IC50 (PDE9A) of the same molecule?
**A.** Its IC50 is over 50 µM.
